Measurements taken from patent US20230190760A1, “ADVANTAGEOUS THERAPIES FOR DISORDERS MEDIATED BY IKAROS OR AIOLOS” (C4 Therapeutics, Inc., priority 2020, published 2023).

System: Interferon-response proteins in DL-40 ALCL xenograft tumors
Test: Global proteomics and gene ontology of DL-40 ALCL xenograft tumors, 48 hours after dose
Type: in vivo, mice
Set-up: Log2 vs Vehicle, 0AS1: dose or concentration left out as unconfirmed
Protocol: […] Gene ontology analysis was done by using BINGO, a Java-based tool that is implemented as a plugin for Cytoscape. Default settings were used to assess the overexpression of GO categories and the interactions among altered proteins were determined using the STRING database, with a cutoff score of 700.

O=C1CC[C@H](N2C(=O)c3cccc4c(Cc5ccc(CN6CCOCC6)cc5)ccc2c34)C(=O)N1 (single isomer, unassigned) [Compound 1]
Log2 vs Vehicle, KPNB1 (0.1 nM for 48 hr): 0.038 | Log2 vs Vehicle, MAPK3 (0.1 nM for 48 hr): −0.042 | Log2 vs Vehicle, MT2A (0.1 nM for 48 hr): −0.297 | Log2 vs Vehicle, MX1 (0.1 nM for 48 hr): 1.715 | Log2 vs Vehicle, MX2 (0.1 nM for 48 hr): 0.83 | Log2 vs Vehicle, NCAM1 (0.1 nM for 48 hr): −0.127 | Log2 vs Vehicle, NDC1 (0.1 nM for 48 hr): −0.063 | Log2 vs Vehicle, NEDD4 (0.1 nM for 48 hr): 0.375 | Log2 vs Vehicle, NUP35 (0.1 nM for 48 hr): −0.023 | Log2 vs Vehicle, NUP37 (0.1 nM for 48 hr): −0.009 | Log2 vs Vehicle, NUP43 (0.1 nM for 48 hr): −0.042 | Log2 vs Vehicle, NUP50 (0.1 nM for 48 hr): −0.009 | Log2 vs Vehicle, NUP54 (0.1 nM for 48 hr): 0.014 | Log2 vs Vehicle, NUP62 (0.1 nM for 48 hr): −0.019 | Log2 vs Vehicle, NUP85 (0.1 nM for 48 hr): −0.05 | Log2 vs Vehicle, NUP88 (0.1 nM for 48 hr): 0.031 | Log2 vs Vehicle, NUP93 (0.1 nM for 48 hr): 0.029 | Log2 vs Vehicle, NUP107 (0.1 nM for 48 hr): 0.033 | Log2 vs Vehicle, NUP133 (0.1 nM for 48 hr): −0.019 | Log2 vs Vehicle, NUP153 (0.1 nM for 48 hr): −0.013 | Log2 vs Vehicle, NUP155 (0.1 nM for 48 hr): 0.001 | Log2 vs Vehicle, NUP160 (0.1 nM for 48 hr): 0.026 | Log2 vs Vehicle, NUP188 (0.1 nM for 48 hr): 0.029 | Log2 vs Vehicle, NUP205 (0.1 nM for 48 hr): −0.001 | Log2 vs Vehicle, NUP210 (0.1 nM for 48 hr): 0.045 | Log2 vs Vehicle, NUP214 (0.1 nM for 48 hr): −0.08 | Log2 vs Vehicle, NUPL2 (0.1 nM for 48 hr): 0.073 | Log2 vs Vehicle, OAS2 (0.1 nM for 48 hr): 0.478 | Log2 vs Vehicle, OAS3 (0.1 nM for 48 hr): 0.884 | Log2 vs Vehicle, OASL (0.1 nM for 48 hr): 0.111 | Log2 vs Vehicle, P0M121 (0.1 nM for 48 hr): −0.05 | Log2 vs Vehicle, P0M121C (0.1 nM for 48 hr): −0.039 | Log2 vs Vehicle, PDE12 (0.1 nM for 48 hr): 0.013 | Log2 vs Vehicle, PIAS1 (0.1 nM for 48 hr): −0.114 | Log2 vs Vehicle, PINI (0.1 nM for 48 hr): 0.05 | Log2 vs Vehicle, PLCG1 (0.1 nM for 48 hr): 0.052 | Log2 vs Vehicle, PML (0.1 nM for 48 hr): 0.176 | Log2 vs Vehicle, PPM1B (0.1 nM for 48 hr): −0.001 | Log2 vs Vehicle, PRKCD (0.1 nM for 48 hr): 0.506 | Log2 vs Vehicle, PSMB8 (0.1 nM for 48 hr): 0.021 | Log2 vs Vehicle, PTPN1 (0.1 nM for 48 hr): 0.009 | Log2 vs Vehicle, PTPN6 (0.1 nM for 48 hr): 0.402 | Log2 vs Vehicle, PTPN11 (0.1 nM for 48 hr): 0.001 | Log2 vs Vehicle, RAE1 (0.1 nM for 48 hr): −0.034 | Log2 vs Vehicle, RANBP2 (0.1 nM for 48 hr): −0.044 | Log2 vs Vehicle, RNASEL (0.1 nM for 48 hr): −0.218 | Log2 vs Vehicle, RPS27A (0.1 nM for 48 hr): −0.054 | Log2 vs Vehicle, SAMHD1 (0.1 nM for 48 hr): 0.128 | Log2 vs Vehicle, SP100 (0.1 nM for 48 hr): −0.028 | Log2 vs Vehicle, STAT1 (0.1 nM for 48 hr): 0.218 | Log2 vs Vehicle, STAT2 (0.1 nM for 48 hr): 0.271 | Log2 vs Vehicle, TPR (0.1 nM for 48 hr): −0.053 | Log2 vs Vehicle, TRIM5 (0.1 nM for 48 hr): 0.107 | Log2 vs Vehicle, TRIM14 (0.1 nM for 48 hr): 0.183 | Log2 vs Vehicle, TRIM21 (0.1 nM for 48 hr): 0.175 | Log2 vs Vehicle, TRIM22 (0.1 nM for 48 hr): 0.331 | Log2 vs Vehicle, TRIM25 (0.1 nM for 48 hr): 0.161 | Log2 vs Vehicle, TRIM26 (0.1 nM for 48 hr): 0.019 | Log2 vs Vehicle, TRIM35 (0.1 nM for 48 hr): 0.144 | Log2 vs Vehicle, TRIM38 (0.1 nM for 48 hr): 0.119 | Log2 vs Vehicle, TYK2 (0.1 nM for 48 hr): −0.039 | Log2 vs Vehicle, UBA7 (0.1 nM for 48 hr): 0.366 | Log2 vs Vehicle, UBE2E1 (0.1 nM for 48 hr): −0.218 | Log2 vs Vehicle, UBE2L6 (0.1 nM for 48 hr): 0.13 | Log2 vs Vehicle, UBE2N (0.1 nM for 48 hr): 0.02 | Log2 vs Vehicle, VCAM1 (0.1 nM for 48 hr): −0.744 | network impacted (gene ontology) (48 hours after oral 100 μg/kg): Interferon (IFN) signaling was the most prominent network impacted | Log2 vs Vehicle, 0AS1 (for 48 hr): 1.414
